In US12590062B2, “PD-1/PD-L1 inhibitors” (Gilead Sciences, Inc., priority 2017, dated 2026):

Columns and labels:
[1] = molecular target: PD-1/PD-L1 (Homo sapiens, UniProt Q9NZQ7); assay: PD-1/PD-L1 biochemical protein-protein interaction assay (ALPHA); assay type: binding; conditions: 0.3 nM His tagged PD-L1, 2.5 nM biotinylated Fc-PD-1, 60 minutes at 25° C., read-out: IC50 PD-L1-PD-1 Alpha IC50-mono PD-L1-fcP-D1
How it was run: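 Compound blockade of the PD-1/PD-L1 extracellular-domain interaction measured as reduced ALPHA signal after 60 min at 25 °C, pH 7.4 Hepes buffer with EDTA, Tween 20 and BSA. Final proteins: His-tagged PD-L1 0.3 nM, biotinylated Fc-PD-1 2.5 nM; four-parameter curve fit gives IC50.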

[2] = molecular target: T1, PD-1/PD-L1 interaction (Homo sapiens, UniProt Q9NZQ7); assay: PD-1/PD-L1 NFAT reporter co-culture assay; assay type: cell-based; conditions: Jurkat PD-1 NFAT-luciferase cells co-cultured with aAPC-PD-L1 CHO cells, 6 hrs at 37° C.; read-out: EC50 NFAT Luciferase
T1 construct: expressed in transfected cells; host or cells: CHO cells (aAPC-PD-L1) co-cultured with Jurkat cells overexpressing PD-1 and an NFAT-luciferase reporter
T1 sequence (Q9NZQ7 19-290): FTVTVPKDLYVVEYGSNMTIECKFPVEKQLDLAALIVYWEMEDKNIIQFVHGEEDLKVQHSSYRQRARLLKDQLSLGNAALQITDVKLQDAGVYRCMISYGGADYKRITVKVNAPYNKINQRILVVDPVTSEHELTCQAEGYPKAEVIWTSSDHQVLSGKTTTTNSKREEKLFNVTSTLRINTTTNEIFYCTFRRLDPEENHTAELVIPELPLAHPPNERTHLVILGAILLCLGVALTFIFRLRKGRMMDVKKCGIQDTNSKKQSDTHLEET
How it was run: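 Jurkat cells overexpressing PD-1 with NFAT-luciferase mixed with compounds and plated onto CHO aAPCs expressing anti-CD3 and PD-L1, RPMI with 2% FBS. Co-culture 6 h at 37 °C; luminescence read with ONE-Glo. EC50 from four-parameter fit.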

[3] = molecular target: T2, PD-L1 (Homo sapiens, UniProt Q9NZQ7); assay: PD-L1/PD-L1 dimerization biochemical protein-protein interaction assay (ALPHA); assay type: binding; conditions: compound-induced PD-L1 dimerization, head prints '1 nM' (0.5 nM His-tagged PD-L1 and 0.5 nM FLAG-tagged PD-L1), read-out: AC50 PDL1 Dimer Alpha 1 nM
T2 construct: determine if they can specifically dimerize the extracellular domains of PD-L1
T2 sequence (Q9NZQ7 19-238 limits assumed): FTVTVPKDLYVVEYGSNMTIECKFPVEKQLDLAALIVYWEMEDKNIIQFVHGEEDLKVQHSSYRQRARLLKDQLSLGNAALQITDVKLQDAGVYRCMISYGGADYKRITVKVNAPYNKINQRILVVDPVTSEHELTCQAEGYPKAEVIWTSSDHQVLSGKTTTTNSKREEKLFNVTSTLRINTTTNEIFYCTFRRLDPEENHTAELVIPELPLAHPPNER
T2 sequence (Q9NZQ7 19-238 limits assumed): as above
How it was run: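 After 2 h at 25 °C with compound, His- and FLAG-tagged PD-L1 ECDs (each 0.5 nM final; 25 mM Hepes pH 7.4, 150 mM NaCl) were detected by sequential anti-His acceptor and anti-FLAG donor bead incubations. Dose-response curves fitted to four-parameter equation for AC50.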

Sequence of PD-1/PD-L1 (Q9NZQ7 19-238 limits assumed): as above

Compound	IC50 [1]	EC50 [2]	AC50 [3]
CNCc1cc(Cl)c(O[C@H]2CCc3c(-c4cccc(-c5ccc(OCCN6CC[C@@H](O)C6)cc5)c4Cl)cccc32)nc1OCc1cncc(S(C)(=O)=O)c1 [Example 664]	2.6 nM	≥ 50000 nM	≥ 10000 nM
CS(=O)(=O)c1cncc(COc2nc(O[C@H]3CCc4c(-c5cccc(-c6ccc(OCCN7CC[C@@H](O)C7)cc6)c5Cl)cccc43)c(Cl)cc2CNC[C@@H](O)CC(=O)O)c1 [Example 666]	0.076 nM	418 nM	22.9 nM
CN1CCCC1c1ccc(-c2cccc(-c3cccc4c3CC[C@@H]4Oc3nc(OCc4cncc(C#N)c4)c(CNCCO)cc3Cl)c2Cl)cc1 (stereo partly drawn) [Example 670]	1.74 nM	≥ 50000 nM	74.8 nM
C[C@@](CO)(NCc1cc(Cl)c(O[C@H]2CCc3c(-c4cccc(-c5ccc(S(N)(=O)=O)cc5)c4Cl)cccc32)nc1OCc1cncc(C#N)c1)C(=O)O [Example 671]	0.159 nM	235 nM	≥ 10000 nM
C[C@@](CO)(NCc1ccc(O[C@H]2CCc3c(-c4cccc(OCCCN5CC[C@@H](O)C5)c4Cl)cccc32)nc1OCc1cncc(C#N)c1)C(=O)O [Example 673]	0.154 nM	583 nM	399 nM
COc1nc(O[C@H]2CCc3c(-c4cccc5c4CC[C@@H]5Oc4ccc(CNC[C@@H](O)CC(=O)O)c(OCc5cncc(C#N)c5)n4)cccc32)c(Br)cc1CNC[C@@H](O)CC(=O)O [Example 678]	0.105 nM	264 nM	254 nM
COc1nc(-c2cccc(-c3cccc4c3CC[C@@H]4Oc3nc(OCc4cncc(C#N)c4)c(CN[C@@](C)(CO)C(=O)O)cc3Cl)c2Cl)ccc1CN1CC2(C1)CN(C(=O)OC(C)(C)C)C2 [Example 682]	0.421 nM	243 nM	194 nM
COc1nc(-c2cccc(-c3cccc4c3CC[C@@H]4Oc3nc(OCc4cncc(C#N)c4)c(CNC[C@@H](O)CC(=O)O)cc3Cl)c2Cl)ccc1CN1CC2(CCC(=O)N2)C1 [Example 683]	0.104 nM	98 nM	116 nM
C[C@@](CO)(NCc1ccc(O[C@H]2CCc3c(-c4cccc5c4CC[C@@H]5Oc4nc(OCc5cncc(C#N)c5)c(CN[C@@](C)(CO)C(=O)O)cc4Cl)cccc32)cc1)C(=O)O [Example 685]	0.552 nM	625 nM	1820 nM
C[C@@](CO)(NCc1cc(Cl)c(O[C@H]2CCc3c(-c4cccc5c4CC[C@@H]5Oc4nc(OCc5cc(C#N)cc(C#N)c5)c(CN[C@@](C)(CO)C(=O)O)cc4Cl)cccc32)nc1OCc1cc(C#N)cc(C#N)c1)C(=O)O [Example 686]	0.282 nM	46 nM	137 nM
C[C@@](CO)(NCc1cc(Cl)c(O[C@H]2CCc3c(-c4cccc5c4CC[C@@H]5Oc4ccc(CN5CC[C@@H](O)C5)c(OCc5cncc(S(C)(=O)=O)c5)n4)cccc32)nc1OCc1cncc(S(C)(=O)=O)c1)C(=O)O [Example 687]	0.659 nM	605 nM	3100 nM
C[C@@](CO)(NCc1cc(Cl)c(O[C@H]2CCc3c(-c4cccc5c4CC[C@@H]5Oc4nc(OCc5cncc(S(C)(=O)=O)c5)c(CN5CC[C@@H](O)C5)cc4Cl)cccc32)nc1OCc1cncc(S(C)(=O)=O)c1)C(=O)O [Example 688]	0.412 nM	≥ 50000 nM	141 nM
C[C@@](CO)(NCc1cc(Cl)c(O[C@H]2CCc3c(-c4cccc5c4CC[C@@H]5Oc4nc(OCc5cncc(S(C)(=O)=O)c5)c(CNCCO)cc4Cl)cccc32)nc1OCc1cncc(S(C)(=O)=O)c1)C(=O)O [Example 690]	0.28 nM	287 nM	80.8 nM
C[C@@](CO)(NCc1cc(Cl)c(O[C@H]2CCc3c(-c4cccc(-c5ccc6c(c5)C[C@@H](N)C6)c4Cl)cccc32)nc1OCc1cncc(C#N)c1)C(=O)O [Example 696]	0.099 nM	12 nM	16.9 nM

The next molecules have a lower IC50 [1] than those just listed; values first:

IC50 [1]	EC50 [2]	AC50 [3]	Compound
0.068 nM	50 nM	51 nM	COc1nc(-c2cccc(-c3cccc4c3CC[C@@H]4Oc3nc(OC)c(CN[C@@](C)(CO)C(=O)O)cc3Br)c2Br)ccc1CNC[C@@H]1CCC(=O)N1 [Example 697]
0.064 nM	118 nM	6.56 nM	C[C@@](CO)(NCc1cc(Br)c(O[C@H]2CCc3c(-c4cccc(-c5ccc(OCCNCCO)cc5)c4Cl)cccc32)nc1OCc1cncc(C#N)c1)C(=O)O [Example 663]
0.064 nM	150 nM	16.5 nM	CC(C)(NCc1cc(Cl)c(O[C@H]2CCc3c(-c4cccc(-c5ccc(OCCN6CC[C@@H](O)C6)cc5)c4Cl)cccc32)nc1OCc1cncc(S(C)(=O)=O)c1)C(=O)O [Example 665]
0.064 nM	1890 nM	17 nM	CC(C)(NCc1cc(Cl)c(O[C@H]2CCc3c(-c4cccc(-c5ccc(OCCN6CC[C@@H](O)C6)cc5)c4Cl)cccc32)nc1OCc1cncc(C#N)c1)C(=O)O [Example 667]
0.064 nM	886 nM	16.5 nM	C[C@@](CO)(NCc1cc(Cl)c(O[C@H]2CCc3c(-c4cccc(-c5ccc(OCCN6CC[C@@H](O)C6)cc5)c4Cl)cccc32)nc1OCc1cncc(C#N)c1)C(=O)O [Example 668]
0.064 nM	637 nM	17.2 nM	C[C@@](CO)(NCc1cc(Cl)c(O[C@H]2CCc3c(-c4cccc(-c5ccc(OCCN6CC[C@@H](O)C6)cc5)c4Cl)cccc32)nc1OCc1cncc(S(C)(=O)=O)c1)C(=O)O [Example 669]
0.064 nM	435 nM	24.5 nM	CN1CCCC1c1ccc(-c2cccc(-c3cccc4c3CC[C@@H]4Oc3nc(OCc4cncc(C#N)c4)c(CNC(C)(C)C(=O)O)cc3Cl)c2Cl)cc1 (stereo partly drawn) [Example 672]
0.064 nM	44 nM	11.3 nM	C[C@@](CO)(NCc1cc(Cl)c(O[C@H]2CCc3c(-c4cccc(-c5ccc(OCCNCCO)cc5)c4Cl)cccc32)nc1OCc1cncc(C#N)c1)C(=O)O [Example 674]
0.064 nM	36 nM	41.2 nM	COc1nc(-c2cccc(-c3cccc4c3CC[C@@H]4Oc3nc(OCc4cncc(C#N)c4)c(CN[C@@](C)(CO)C(=O)O)cc3Cl)c2Cl)ccc1CN1CC2(CCC(=O)N2)C1 [Example 684]
0.064 nM	139 nM	114 nM	CS(=O)(=O)c1cncc(COc2nc(O[C@H]3CCc4c(-c5cccc6c5CC[C@@H]6Oc5nc(OCc6cncc(S(C)(=O)=O)c6)c(CN6CC[C@@H](O)C6)cc5Cl)cccc43)c(Cl)cc2CN2CC[C@@H](O)C2)c1 [Example 689]
0.064 nM	26 nM	21.6 nM	C[C@@](CO)(NCc1cc(Cl)c(O[C@H]2CCc3c(-c4cccc(-c5ccc6c(c5)C[C@H](N)C6)c4Cl)cccc32)nc1OCc1cncc(C#N)c1)C(=O)O [Example 695]
0.063 nM	145 nM	180 nM	Cc1c(-c2ccc(OCCNC[C@@H](O)CC(=O)O)cc2)cccc1-c1cccc2c1CC[C@@H]2Oc1ccc(CNC[C@@H](O)CC(=O)O)c(OCc2cncc(C#N)c2)n1 [Example 677]
0.058 nM	64 nM	101 nM	COc1nc(O[C@H]2CCc3c(-c4cccc5c4CC[C@@H]5Oc4nc(OCc5cncc(C#N)c5)c(CNC[C@@H](O)CC(=O)O)cc4Br)cccc32)c(Br)cc1CNC[C@@H](O)CC(=O)O [Example 679]
